Assay results: patent US7202261B2, “Calcilytic compounds” (NPS Pharmaceuticals, Inc., priority 1996, dated 2007)
pIC50: −log10 of the molar value. Counter-ions that a name gives are not always drawn.

Biological target: T1, human calcium receptor (Homo sapiens, UniProt P41180)
T1 construct: expressed in transfected cells
T1 sequence (P41180 20-1078): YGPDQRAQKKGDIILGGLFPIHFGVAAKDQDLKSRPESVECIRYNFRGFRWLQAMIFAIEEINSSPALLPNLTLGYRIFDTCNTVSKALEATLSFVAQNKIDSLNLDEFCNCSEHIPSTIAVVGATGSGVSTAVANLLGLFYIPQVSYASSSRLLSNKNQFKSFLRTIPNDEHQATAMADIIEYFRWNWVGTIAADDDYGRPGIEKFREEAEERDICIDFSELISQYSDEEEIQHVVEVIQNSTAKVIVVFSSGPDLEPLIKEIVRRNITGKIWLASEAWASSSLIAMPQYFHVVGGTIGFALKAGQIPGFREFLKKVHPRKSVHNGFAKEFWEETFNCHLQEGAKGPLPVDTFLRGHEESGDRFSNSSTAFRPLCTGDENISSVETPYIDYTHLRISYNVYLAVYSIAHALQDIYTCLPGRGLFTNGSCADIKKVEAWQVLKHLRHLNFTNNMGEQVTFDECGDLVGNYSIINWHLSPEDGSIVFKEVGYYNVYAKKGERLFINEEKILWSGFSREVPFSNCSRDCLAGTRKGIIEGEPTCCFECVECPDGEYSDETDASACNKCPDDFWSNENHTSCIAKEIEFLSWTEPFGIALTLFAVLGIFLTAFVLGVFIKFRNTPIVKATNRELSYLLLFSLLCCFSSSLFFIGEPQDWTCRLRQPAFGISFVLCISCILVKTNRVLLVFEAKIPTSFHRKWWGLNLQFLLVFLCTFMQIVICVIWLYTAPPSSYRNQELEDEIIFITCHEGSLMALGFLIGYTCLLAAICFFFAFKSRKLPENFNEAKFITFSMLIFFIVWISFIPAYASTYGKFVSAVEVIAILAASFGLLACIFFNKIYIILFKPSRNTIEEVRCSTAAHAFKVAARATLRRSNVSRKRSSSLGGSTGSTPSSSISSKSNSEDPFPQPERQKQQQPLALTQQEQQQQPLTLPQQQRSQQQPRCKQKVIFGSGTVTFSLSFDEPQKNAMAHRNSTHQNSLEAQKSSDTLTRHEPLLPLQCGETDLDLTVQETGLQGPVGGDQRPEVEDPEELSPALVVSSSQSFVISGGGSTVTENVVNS
Assay: Calcium Receptor Inhibitor Assay
Type: cell-based
Conditions: HEK 293 4.0–7 cells stably expressing the human calcium receptor; fluo-3; read-out: IC50 for blocking increases of intracellular Ca2+ elicited by extracellular Ca2+
Summary of the method: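 Intracellular Ca^2+ measured with fluo-3 at 37° C in stirred cell suspension. Buffer held 1 mM CaCl2 and 1 mg/mL D-glucose. Compound or vehicle added 90 seconds before extracellular Ca^2+ was raised from 1 to 2 mM, and calcilytic activity scored as concentration-dependent block of the intracellular Ca^2+ rise.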

Structure (SMILES): COc1ccc(CC(C)(C)NC[C@@H](O)COc2ccccc2)cc1 (single isomer, unassigned) [Compound 32, (R) or (S)—N-(2-Hydroxy-3-phenoxypropyl)-1,1-dimethyl-2-(4-methoxyphenyl)ethylamine Hydrochloride]
- pIC50: > 5.00

Structure (SMILES): COc1ccc(CC(C)(C)NCC(O)COc2cccc(OC)c2)cc1 (centres unmarked) [Compound 38, N-[2-Hydroxy-3-(3-methoxyphenoxy)propyl]-1,1-dimethyl-2-(4-methoxyphenyl)ethylamine Hydrochloride]
- pIC50: > 6.00
